Measurements as given in US8288363B2, “Medicaments for anti-herpes virus treatments” (ASE & BIO, priority 2006, dated 2012).

Key:
HSV-1 = experiment: Anti-herpes activity, viability of infected vero cells (neutral red); assay type: cell-based, herpes simplex virus 1; settings: for EC50: MOI 0.01 ID50/cell
Experimental: (§1) This method is based on the principle that living cells absorb neutral red, which is a vital stain. The optical density of the medium was measured at the maximum absorption wavelength of neutral red, that is to say 540 nm, using a spectrophotometer (SpectraCount™, microplate photometer, Packard). The optical density at 540 nm is proportional to the number of living cells in an infected culture (McLaren et al., Antiviral Research, 1983; 3: 223-234 and Langlois et al., Standardization, 1986, 14: 201-211).
(§2) The effective concentration (EC 50%), that is to say the concentration of the sulphated polysaccharide which enables infection of 50% of the cells of a culture to be inhibited, was measured for each viral strain.
(§3) The determination of the EC50 was carried out in 96-well microtitre plates in accordance with the following protocol. Vero cells are seeded at a cell density of 3.5·10^4 cells/well in 100 μl of MEM medium containing 8% FCS. For each viral suspension defined by its MOI: • the negative control column was filled with 100 μl of MEM medium with 8% FCS, • the virus control column was filled with 50 μl of viral suspension having the required MOI and with 50 μl of MEM medium with 8% FCS, • the PS3 control column was filled with 50 μl of PS3 having the desired concentration range or with 50 μl of acyclovir (Zovirax 0.05-5 μg/ml • finally, all the other columns were filled successively with 50 μl of PS3 having the required concentration range or with 50 μl of acyclovir (Zovirax 0.05-5 μg/ml) and with 50 μl of the viral suspension having the desired MOI.
(§4) The EC50 corresponding to the concentration which enables the cytopathic effect of the virus to be reduced by 50% was calculated in accordance with the following formula: […]
(§5) The anti-herpes activity of PS3 was evaluated and compared on each viral suspension of HSV-1, HSV-1R, HSV-2 and HSV-2R defined by an MOI of 0.01 ID50/cell for a cell concentration of 350,000 cells/ml, after incubation times of 48 and 72 hours.
(§6) This series of experiments was carried out applying the protocol enabling the EC50 to be determined, as described in Example 3.
(§7) The therapeutic indices (TI) of PS3, as well as three other reference products, that is to say acyclovir, dextran sulphate and phycarine, were determined in parallel for each viral strain.
(§8) The therapeutic index (TI) represents the ratio between the maximum non-toxic dose (or a dose inducing a quantified toxicity) and the dose inducing a favourable pharmacological effect.

[1] = tested on: HSV-1, HSV-1R, HSV-2 and HSV-2R; experiment: Action as a function of the moment of use (time of addition); assay type: cell-based, herpes simplex virus; settings: for Inhibitory effect as a function of the moment of use: viral strains HSV-1R and HSV-2R, PS3 even when used 3 hours after infection, 72 hours
Experimental: To determine at what moment it is appropriate to use PS3, the procedure was as follows.
Vero cells were seeded at a cell density of 3.5·10^4 cells/well of a 96-well microtitre plate in 100 μl of MEM medium containing 8% FCS and they were then infected by being brought into contact with the various viral strains identified above for 1 hour at 4° C.
The infected cells were then washed with a saline buffer in order to remove the viral particles which had not be adsorbed.
The infected cells were then treated with PS3 or with the comparison product: • either at the moment of infection, • or 1, 2, 3 and 5 hours after infection.
In each case the microtitre plates were kept at 37° C. for 72 hours. The inhibitory effect of PS3 or of the comparison product, in this case acyclovir, was then determined for each viral strain.

[2] = tested on: acyclovir-resistant strain HSV-2R; experiment: Anti-herpes activity, viability of infected vero cells (neutral red); assay type: cell-based, herpes simplex virus 2; settings: for Anti-herpes activity (conclusion in words) / EC50: HSV-2R; for Anti-herpes activity (conclusion in words): 48 and 72 hours; for EC50: MOI 0.01 ID50/cell
Experimental: as §1, §2, §3, §4, §5, §6, §7, §8

HSV-2 [3] = experiment: as above; assay type: cell-based, herpes simplex virus 2; settings: for EC50: MOI 0.01 ID50/cell
Experimental: as §1, §2, §3, §4, §5, §6, §7, §8

[4] = tested on: HSV-1, HSV-1R, HSV-2 and HSV-2R; experiment: Action on the viral adsorption, conclusion for the strains together; assay type: cell-based, herpes simplex virus
Experimental: (§9) To determine whether PS3 has an effect on the viral adsorption, the procedure was as follows.
(§10) Vero cells were seeded at a cell density of 3.5·10^4 cells/well of a 96-well microtitre plate in 100 μl of MEM medium containing 8% FCS 24 hours before the test. The viral suspensions of HSV-1, HSV-1R, HSV-2 and HSV-2R, defined by an MOI of 0.01 ID50/cell for a cell concentration of 350,000 cells/ml, were tested.
(§11) On the day of the test, the cells were subjected to three different treatments designated A, B and C.
(§12) According to treatment A, cells treated with 50 μl of PS3 or comparison product (acyclovir) of a given concentration were infected with 50 μl of one of the viral suspensions identified above for one hour at 4° C.
(§13) The infected cells were then washed with 100 μl of saline buffer in order to remove the PS3 or the reference product as well as the viral particles which had not been adsorbed by the cells.
(§14) After having filled each well with sufficient MEM medium containing 8% FCS to arrive at a volume of 200 μl, the cells were then placed in an oven at 37° C. for 72 hours. […]
(§15) For these 3 treatments, the inhibitory effect of PS3 and of the reference product (expressed in EC50) on the adsorption of the four abovementioned viral strains after 72 hours was evaluated by measurement of the EC50 values in accordance with the method described in Example 3.

HSV-2R = experiment: Action on the viral adsorption (treatments A, B, C); assay type: cell-based, herpes simplex virus 2; settings: treatment C (present during and after infection), 72 hours
Experimental: as §9, §10, §11, §12, §13, §14, §15

HSV-2 [5] = experiment: as above; assay type: cell-based, herpes simplex virus 2; settings: treatment C (present during and after infection), 72 hours
Experimental: as §9, §10, §11, §12, §13, §14, §15

[6] = non-resistant strains HSV-1 and HSV-2
[7] = strains HSV-1, HSV-2, HSV-1R, HSV-2R

| Compound | Therapeutic index HSV-1 (HSV-1; incubation time 48 hours) | Therapeutic index HSV-1 (HSV-1; incubation time 72 hours) | Inhibitory effect as a function of the moment of use [1] | Anti-herpes activity (conclusion in words) [2] | Therapeutic index HSV-2R ([2]; incubation time 48 hours) | Therapeutic index HSV-2R ([2]; incubation time 72 hours) | Therapeutic index HSV-2 (HSV-2 [3]; incubation time 48 hours) | Therapeutic index HSV-2 (HSV-2 [3]; incubation time 72 hours) | also measured |
| --- | --- | --- | --- | --- | --- | --- | --- | --- | --- |
| Nc1nc2c(ncn2COCCO)c(=O)[nH]1 [Acyclovir, acyclovir, reference compound] | >4,902 | >1,492 | no effect | not effective | 0 | 0 | >579 | >613 | Effect in relation to the moment of addition [1, 6]: effective up; Effect on adsorption [4, 6]: no |
| sulphated laminarin [PS3] | >1,761 | >651 | particularly effective | more effective than acyclovir | >3,788 | >1,712 | >4,808 | >1,344 | EC50 (HSV-2R): 0.30 µg/mL; EC50 (HSV-2 [5]): 0.24 µg/mL; EC50 (HSV-1; HSV-1, after 48 hours of treatment): less than 2 μg/ml; EC50 (HSV-1; HSV-1, after 72 hours of treatment): less than 5 μg/ml; Effect in relation to the moment of addition [1, 7]: not very effective; EC50 ([2]; after 48 hours of treatment): less than 2 μg/ml; EC50 ([2]; after 72 hours of treatment): less than 5 μg/ml; Anti-herpes activity (conclusion in words) (HSV-2 [3]; HSV-2, 48 and 72 hours): more effective than acyclovir; EC50 (HSV-2 [3]; HSV-2, after 48 hours of treatment): less than 2 μg/ml; EC50 (HSV-2 [3]; HSV-2, after 72 hours of treatment): less than 5 μg/ml; Effect on adsorption [4, 7]: inhibitory effect on the 4 viral strains solely during treatment C and yes |
